From patent US8192962B2, “Processes for detecting toxic substances” (Daikin Industries, Ltd., priority 2001, dated 2012)

Test system: Transport facilitation protein genes
Assay: DNA chip mRNA expression in yeast, transport facilitation protein genes (Table 5)
Format: cell-based, Saccharomyces cerevisiae S288C
Experimental: Yeast (Saccharomyces cerevisiae S288C (α SUC2mal mel gap2 CUP1)) were incubated at 25° C. on YPD medium (yeast extract 1%, polypepton 2%, glucose 2%). One of toxic chemical substances was added to the cells at logarithmic growth phase, and the cells were further incubated for two hours. Cells were cultured without any chemical substance in the same condition, and were used as control. Concentrations of the chemical substances were defined to inhibit the growth of the yeast but not lead to death.
After completion of the incubation, the culture was centrifuged to collect the cells. To the cells, sodium acetate buffer (50 mM sodium acetate, 10 mM EDTA, 1% SDS) was added, and the mixture was shaken at 65° C. for five minutes, followed by returning to room temperature, and obtaining the supernatant, of which the procedures were repeated two times. To the supernatant, ½ amount of a solution of phenol/chloroform was added, and the mixture was centrifuged to give a supernatant, which was added with an equal amount of chloroform, and the mixture was centrifuged to give a supernatant. To the supernatant, an equal amount of isopropanol containing 0.3 M sodium acetate was added, and the mixture was allowed to stand at room temperature for 30 minutes, after which the mixture was centrifuged to give a sediment of the whole RNAs. Seventy % ethanol was added to the sediment, and the mixture was again centrifuged to give a sediment, which was then dried and dissolved in water. mRNA was isolated from the whole RNAs as followings. In view of the fact that a poly A chain is attached to the 3′ terminus of mRNA, a polynucleotide having a poly T structure which was immobilized on the surface of latex beads was used to trap the mRNA, and then the mRNA was washed and eluted with spine column (Oligotex-dT30<Super>mRNA Purification Kit, Takara). Reverse transcription of the mRNA was conducted with a reverse transcriptase (Super Script II Reverse Transcriptase; catalogue No. 18064-014, GibcoBRL) using fluorescence-labeled nucleotides to give cDNAs that were introduced with Cy3-dUTP or Cy5-dUTP during the reverse transcription.
The labeled cDNAs were dissolved in TE buffer (10mM Tris-HCl/1 mM EDTA, pH8.0), and the solution was dropped on the DNA chip containing the whole genes of yeast (DNA Chip Research Inc. Japan) so that the cDNAs were hybridized on the DNA chip at 65° C. for over 12 hours. The fluoresces intensity of the DNA chip was read with a scanner, and the ratio relative to the fluorescence intensity resulting from the absence of chemical substance was estimated as the following, which is shown in Tables 1 to 9: […]

SMILES: N#Cc1c(Cl)c(Cl)c(Cl)c(C#N)c1Cl [(9), 2,4,5,6-tetrachloro-1,3-benzenedicarbonitrile]
- The level of expressed mRNA in the presence of chemical substance/The level of expressed mRNA in the absence of chemical substance (yeast gene YBL030C): 0.4
- The level of expressed mRNA in the presence of chemical substance/The level of expressed mRNA in the absence of chemical substance (yeast gene YBL099W): 0.9
- The level of expressed mRNA in the presence of chemical substance/The level of expressed mRNA in the absence of chemical substance (yeast gene YBR052C): 2.3
- The level of expressed mRNA in the presence of chemical substance/The level of expressed mRNA in the absence of chemical substance (yeast gene YBR068C): 0.8
- The level of expressed mRNA in the presence of chemical substance/The level of expressed mRNA in the absence of chemical substance (yeast gene YBR127C): 0.6
- The level of expressed mRNA in the presence of chemical substance/The level of expressed mRNA in the absence of chemical substance (yeast gene YBR132C): 0.8
- The level of expressed mRNA in the presence of chemical substance/The level of expressed mRNA in the absence of chemical substance (yeast gene YBR207W): 1.7
- The level of expressed mRNA in the presence of chemical substance/The level of expressed mRNA in the absence of chemical substance (yeast gene YBR293W): 5.5
- The level of expressed mRNA in the presence of chemical substance/The level of expressed mRNA in the absence of chemical substance (yeast gene YBR294W): 5.2
- The level of expressed mRNA in the presence of chemical substance/The level of expressed mRNA in the absence of chemical substance (yeast gene YBR295W): 1.2
- The level of expressed mRNA in the presence of chemical substance/The level of expressed mRNA in the absence of chemical substance (yeast gene YBR298C): 0.3
- The level of expressed mRNA in the presence of chemical substance/The level of expressed mRNA in the absence of chemical substance (yeast gene YCL025C): 0.3
- The level of expressed mRNA in the presence of chemical substance/The level of expressed mRNA in the absence of chemical substance (yeast gene YCL038C): 1.1
- The level of expressed mRNA in the presence of chemical substance/The level of expressed mRNA in the absence of chemical substance (yeast gene YCR024C-A): 0.2
- The level of expressed mRNA in the presence of chemical substance/The level of expressed mRNA in the absence of chemical substance (yeast gene YCR037C): 0.6
- The level of expressed mRNA in the presence of chemical substance/The level of expressed mRNA in the absence of chemical substance (yeast gene YCR098C): 1.4
- The level of expressed mRNA in the presence of chemical substance/The level of expressed mRNA in the absence of chemical substance (yeast gene YDL128W): 0.5
- The level of expressed mRNA in the presence of chemical substance/The level of expressed mRNA in the absence of chemical substance (yeast gene YDL198C): 1.9
- The level of expressed mRNA in the presence of chemical substance/The level of expressed mRNA in the absence of chemical substance (yeast gene YDL210W): 1.2
- The level of expressed mRNA in the presence of chemical substance/The level of expressed mRNA in the absence of chemical substance (yeast gene YDL245C): 0.4
- The level of expressed mRNA in the presence of chemical substance/The level of expressed mRNA in the absence of chemical substance (yeast gene YDR038C): 1.4
- The level of expressed mRNA in the presence of chemical substance/The level of expressed mRNA in the absence of chemical substance (yeast gene YDR039C): 1.8
- The level of expressed mRNA in the presence of chemical substance/The level of expressed mRNA in the absence of chemical substance (yeast gene YDR086C): 0.6
- The level of expressed mRNA in the presence of chemical substance/The level of expressed mRNA in the absence of chemical substance (yeast gene YDR270W): 2.9
- The level of expressed mRNA in the presence of chemical substance/The level of expressed mRNA in the absence of chemical substance (yeast gene YDR298C): 1.0
- The level of expressed mRNA in the presence of chemical substance/The level of expressed mRNA in the absence of chemical substance (yeast gene YDR342C): 0.2
- The level of expressed mRNA in the presence of chemical substance/The level of expressed mRNA in the absence of chemical substance (yeast gene YDR343C): 0.3
- The level of expressed mRNA in the presence of chemical substance/The level of expressed mRNA in the absence of chemical substance (yeast gene YDR345C): 0.2
- The level of expressed mRNA in the presence of chemical substance/The level of expressed mRNA in the absence of chemical substance (yeast gene YDR387C): 1.4
- The level of expressed mRNA in the presence of chemical substance/The level of expressed mRNA in the absence of chemical substance (yeast gene YDR497C): 0.4
- The level of expressed mRNA in the presence of chemical substance/The level of expressed mRNA in the absence of chemical substance (yeast gene YEL027W): 0.9
- The level of expressed mRNA in the presence of chemical substance/The level of expressed mRNA in the absence of chemical substance (yeast gene YEL063C): 0.8
- The level of expressed mRNA in the presence of chemical substance/The level of expressed mRNA in the absence of chemical substance (yeast gene YEL065W): 0.1
- The level of expressed mRNA in the presence of chemical substance/The level of expressed mRNA in the absence of chemical substance (yeast gene YER053C): 1.3
- The level of expressed mRNA in the presence of chemical substance/The level of expressed mRNA in the absence of chemical substance (yeast gene YFL011W): 0.3
- The level of expressed mRNA in the presence of chemical substance/The level of expressed mRNA in the absence of chemical substance (yeast gene YFL041W): 0.8
- The level of expressed mRNA in the presence of chemical substance/The level of expressed mRNA in the absence of chemical substance (yeast gene YFL050C): 0.5
- The level of expressed mRNA in the presence of chemical substance/The level of expressed mRNA in the absence of chemical substance (yeast gene YFL054C): 2.0
- The level of expressed mRNA in the presence of chemical substance/The level of expressed mRNA in the absence of chemical substance (yeast gene YGL006W): 3.0
- The level of expressed mRNA in the presence of chemical substance/The level of expressed mRNA in the absence of chemical substance (yeast gene YGL008C): 0.0
- The level of expressed mRNA in the presence of chemical substance/The level of expressed mRNA in the absence of chemical substance (yeast gene YGL104C): 4.6
- The level of expressed mRNA in the presence of chemical substance/The level of expressed mRNA in the absence of chemical substance (yeast gene YGL167C): 1.3
- The level of expressed mRNA in the presence of chemical substance/The level of expressed mRNA in the absence of chemical substance (yeast gene YGL255W): 0.3
- The level of expressed mRNA in the presence of chemical substance/The level of expressed mRNA in the absence of chemical substance (yeast gene YGR055W): 5.0
- The level of expressed mRNA in the presence of chemical substance/The level of expressed mRNA in the absence of chemical substance (yeast gene YGR065C): 1.2
- The level of expressed mRNA in the presence of chemical substance/The level of expressed mRNA in the absence of chemical substance (yeast gene YGR082W): 0.6
- The level of expressed mRNA in the presence of chemical substance/The level of expressed mRNA in the absence of chemical substance (yeast gene YGR096W): 0.8
- The level of expressed mRNA in the presence of chemical substance/The level of expressed mRNA in the absence of chemical substance (yeast gene YGR138C): 0.5
- The level of expressed mRNA in the presence of chemical substance/The level of expressed mRNA in the absence of chemical substance (yeast gene YGR191W): 0.1
- The level of expressed mRNA in the presence of chemical substance/The level of expressed mRNA in the absence of chemical substance (yeast gene YGR197C): 16.7
- The level of expressed mRNA in the presence of chemical substance/The level of expressed mRNA in the absence of chemical substance (yeast gene YGR224W): 0.9
